Measurements reported in patent EP0531958A1, “6-Aminoquinolones, their synthesis and their use as antibacterial agents” (MEDIOLANUM FARMACEUTICI S.P.A., priority 1991, dated 1993).
Converted amounts (≈) assume the structure as drawn. Like-named read-outs stand apart in the source and are kept apart here.

Key:
Type in all cases: cell-based
[1] = test system: Pseudomonas aeruginosa CNUR 4; experiment: MIC test, agar dilution with Steers multiwell inoculator; conditions: CNUR4, TSA dishes, 24 h at 35°C, read-out: Minimum Inhibiting Concentration
Procedure: (§1) As to the antibacterial activity, there was determined the Least (Minimum) Inhibiting Concentration (MIC), by working according to the following operative conditions.
(§2) There were used suspensions of test germs (5 gram-positive and 15 gram-negative) having a known titre, kept freezed at -80°C and diluted, at the time of use, in peptonized water up to a concentration of 1-2.10⁷ cfu/ml.
(§3) A few mg of the products, according to the invention were weighed sufficient for preparing parent solutions in DMSO + NaOH (1N) containing 2560 µg/ml (64µg/ml/dish). From the thus prepared parent solutions there were prepared 12 serial dilutions (1:2) down to the concentration of 1.25 µg/ml.
(§4) 0.5 ml of the different dilutions of each product were distributed on dishes containing 19.5 ml of agarized medium (TSA), maintained in a fluid state at the temperature of 50°C. After slight stirring, the dishes were made to solidify and dry under hood (laminar flow).
(§5) The MIC tests (Least or "Minimum" Inhibiting Concentration) were performed by using a Steers multiwell inoculator having 36 wells, each containing 200 µl of bacterial suspension.
(§6) After inoculation, the dishes were placed into a thermostat and checked after 24 h of incubation at 35°C.
(§7) The MIC is defined as the lowermost product concentration (µg/ml) inhibiting the visible growth of the microorganisms.

Escherichia coli ISF 432 = experiment: as above; conditions: ISF432, TSA dishes, 24 h at 35°C, read-out: Minimum Inhibiting Concentration
Procedure: as §1, §2, §3, §4, §5, §6, §7

[2] = test system: Escherichia coli ATCC 8739; experiment: as above; conditions: ATCC8739, TSA dishes, 24 h at 35°C, read-out: Minimum Inhibiting Concentration
Procedure: as §1, §2, §3, §4, §5, §6, §7

[3] = test system: Pseudomonas aeruginosa CNUR 2; experiment: as above; conditions: CNUR2, TSA dishes, 24 h at 35°C, read-out: Minimum Inhibiting Concentration
Procedure: as §1, §2, §3, §4, §5, §6, §7

Escherichia coli CNUR 8 = experiment: as above; conditions: CNUR8, TSA dishes, 24 h at 35°C, read-out: Minimum Inhibiting Concentration
Procedure: as §1, §2, §3, §4, §5, §6, §7

[4] = test system: Staphylococcus epidermidis CPHL A2; experiment: as above; conditions: CPHLA2, TSA dishes, 24 h at 35°C, read-out: Minimum Inhibiting Concentration
Procedure: as §1, §2, §3, §4, §5, §6, §7

Escherichia coli 120 = experiment: as above; conditions: TSA dishes, 24 h at 35°C, read-out: Minimum Inhibiting Concentration
Procedure: as §1, §2, §3, §4, §5, §6, §7

[5] = test system: Pseudomonas aeruginosa ATCC 9027; experiment: as above; conditions: ATCC9027, TSA dishes, 24 h at 35°C, read-out: Minimum Inhibiting Concentration
Procedure: as §1, §2, §3, §4, §5, §6, §7

[6] = test system: Staphylococcus aureus MPR 5; experiment: as above; conditions: MPR5, TSA dishes, 24 h at 35°C, read-out: Minimum Inhibiting Concentration
Procedure: as §1, §2, §3, §4, §5, §6, §7

Escherichia coli CNUR 1 = experiment: as above; conditions: CNUR1, TSA dishes, 24 h at 35°C, read-out: Minimum Inhibiting Concentration
Procedure: as §1, §2, §3, §4, §5, §6, §7

[7] = test system: Enterobacter cloacae OMNF 1153; experiment: as above; conditions: OMNF1153, TSA dishes, 24 h at 35°C, read-out: Minimum Inhibiting Concentration
Procedure: as §1, §2, §3, §4, §5, §6, §7

[8] = test system: Streptococcus facealis LEP Br.; experiment: as above; conditions: TSA dishes, 24 h at 35°C, read-out: Minimum Inhibiting Concentration
Procedure: as §1, §2, §3, §4, §5, §6, §7

[9] = test system: Klebsiella pneumoniae ATCC 10031; experiment: as above; conditions: ATCC10031, TSA dishes, 24 h at 35°C, read-out: Minimum Inhibiting Concentration
Procedure: as §1, §2, §3, §4, §5, §6, §7

Shighella enteritidis = experiment: as above; conditions: TSA dishes, 24 h at 35°C, read-out: Minimum Inhibiting Concentration
Procedure: as §1, §2, §3, §4, §5, §6, §7

[10] = test system: Enterobacter cloacae OMNF 1174; experiment: as above; conditions: OMNF1174, TSA dishes, 24 h at 35°C, read-out: Minimum Inhibiting Concentration
Procedure: as §1, §2, §3, §4, §5, §6, §7

[11] = test system: Providencia stuardii CNUR 5; experiment: as above; conditions: CNUR5, TSA dishes, 24 h at 35°C, read-out: Minimum Inhibiting Concentration
Procedure: as §1, §2, §3, §4, §5, §6, §7

[12] = test system: Staphylococcus epidermidis HCF Berset C.; experiment: as above; conditions: TSA dishes, 24 h at 35°C, read-out: Minimum Inhibiting Concentration
Procedure: as §1, §2, §3, §4, §5, §6, §7

Proteus vulgaris CNUR 6 = experiment: as above; conditions: CNUR6, TSA dishes, 24 h at 35°C, read-out: Minimum Inhibiting Concentration
Procedure: as §1, §2, §3, §4, §5, §6, §7

[13] = test system: Acinebacter calcoloaceticus OSMPV 1130; experiment: as above; conditions: TSA dishes, 24 h at 35°C, read-out: Minimum Inhibiting Concentration
Procedure: as §1, §2, §3, §4, §5, §6, §7

[14] = test system: Staphylococcus aureus ATCC 6538; experiment: as above; conditions: ATCC6538, TSA dishes, 24 h at 35°C, read-out: Minimum Inhibiting Concentration
Procedure: as §1, §2, §3, §4, §5, §6, §7

Gram + = experiment: MIC test, average over the 5 gram-positive test germs; conditions: 24 h
Procedure: as §1, §2, §3, §4, §5, §6, §7

Gram - = experiment: MIC test, average over the 15 gram-negative test germs; conditions: 24 h
Procedure: as §1, §2, §3, §4, §5, §6, §7

[15] = geometrical average of the MIC over the 5 Gram + strains, read-out: Geometrical Average
[16] = geometrical average of the MIC over the 15 Gram - strains, read-out: Geometrical Average
[17] = mean log of the MIC over the 15 Gram - strains, read-out: Log (converted)

Nc1cc2c(=O)c(C(=O)O)cn(C3CC3)c2cc1N1CCSCC1 [Compound 15]
MIC [1]: 128 µg/mL (≈ 371 µM)
MIC (Escherichia coli ISF 432): 0.03 µg/mL (≈ 0.0868 µM)
MIC [2]: 0.03 µg/mL (≈ 0.0868 µM)
MIC [3]: 16 µg/mL (≈ 46.3 µM)
MIC (Escherichia coli CNUR 8): 0.12 µg/mL (≈ 0.347 µM)
MIC [4]: 1 µg/mL (≈ 2.89 µM)
MIC (Escherichia coli 120): 0.12 µg/mL (≈ 0.347 µM)
MIC [5]: 2 µg/mL (≈ 5.79 µM)
MIC [6]: 0.5 µg/mL (≈ 1.45 µM)
MIC (Escherichia coli CNUR 1): 0.5 µg/mL (≈ 1.45 µM)
MIC [7]: 0.5 µg/mL (≈ 1.45 µM)
MIC [8]: 8 µg/mL (≈ 23.2 µM)
MIC [9]: 0.03 µg/mL (≈ 0.0868 µM)
MIC (Shighella enteritidis): 0.5 µg/mL (≈ 1.45 µM)
MIC [10]: 0.5 µg/mL (≈ 1.45 µM)
MIC [11]: 1 µg/mL (≈ 2.89 µM)
MIC [12]: 2 µg/mL (≈ 5.79 µM)
MIC (Proteus vulgaris CNUR 6): 128 µg/mL (≈ 371 µM)
MIC [13]: 1 µg/mL (≈ 2.89 µM)
MIC [14]: 0.5 µg/mL (≈ 1.45 µM)
MIC (Gram +; [15]): 1.32 µg/mL
MIC (Gram +; read-out: Log (converted)): 1.32 µg/mL (≈ 3.82 µM)
MIC (Gram -; [16]): 0.748 µg/mL (≈ 2.17 µM)
MIC (Gram -; [17]): 0.748 µg/mL (≈ 2.17 µM)

CN1CCN(c2c(F)cc3c(=O)c(C(=O)O)cn4c3c2SCC4)CC1 [RUFLOXACIN, reference compound]
MIC [1]: 64 µg/mL (≈ 176 µM)
MIC (Escherichia coli ISF 432): 0.06 µg/mL (≈ 0.165 µM)
MIC [2]: 0.5 µg/mL (≈ 1.38 µM)
MIC [3]: 32 µg/mL (≈ 88.1 µM)
MIC (Escherichia coli CNUR 8): 0.5 µg/mL (≈ 1.38 µM)
MIC [4]: 1 µg/mL (≈ 2.75 µM)
MIC (Escherichia coli 120): 0.25 µg/mL (≈ 0.688 µM)
MIC [5]: 8 µg/mL (≈ 22 µM)
MIC [6]: 1 µg/mL (≈ 2.75 µM)
MIC (Escherichia coli CNUR 1): 0.5 µg/mL (≈ 1.38 µM)
MIC [7]: 1 µg/mL (≈ 2.75 µM)
MIC [8]: 8 µg/mL (≈ 22 µM)
MIC [9]: 0.12 µg/mL (≈ 0.33 µM)
MIC (Shighella enteritidis): 0.5 µg/mL (≈ 1.38 µM)
MIC [10]: 0.5 µg/mL (≈ 1.38 µM)
MIC [11]: 2 µg/mL (≈ 5.5 µM)
MIC [12]: 2 µg/mL (≈ 5.5 µM)
MIC (Proteus vulgaris CNUR 6): 16 µg/mL (≈ 44 µM)
MIC [13]: 2 µg/mL (≈ 5.5 µM)
MIC [14]: 0.5 µg/mL (≈ 1.38 µM)
MIC (Gram +; [15]): 1.51 µg/mL
MIC (Gram +; read-out: Log (converted)): 1.52 µg/mL (≈ 4.17 µM)
MIC (Gram -; [16]): 1.31 µg/mL (≈ 3.61 µM)
MIC (Gram -; [17]): 1.31 µg/mL (≈ 3.61 µM)

Nc1cc2c(=O)c(C(=O)O)cn(C3CC3)c2cc1N1CCCC1 [Compound 10]
MIC [1]: 128 µg/mL (≈ 408 µM)
MIC (Escherichia coli ISF 432): 0.25 µg/mL (≈ 0.798 µM)
MIC [2]: 0.25 µg/mL (≈ 0.798 µM)
MIC [3]: 128 µg/mL (≈ 408 µM)
MIC (Escherichia coli CNUR 8): 8 µg/mL (≈ 25.5 µM)
MIC [4]: 128 µg/mL (≈ 408 µM)
MIC (Escherichia coli 120): 4 µg/mL (≈ 12.8 µM)
MIC [5]: 128 µg/mL (≈ 408 µM)
MIC [6]: 128 µg/mL (≈ 408 µM)
MIC (Escherichia coli CNUR 1): 16 µg/mL (≈ 51.1 µM)
MIC [7]: 16 µg/mL (≈ 51.1 µM)
MIC [8]: 128 µg/mL (≈ 408 µM)
MIC [9]: 0.25 µg/mL (≈ 0.798 µM)
MIC (Shighella enteritidis): 16 µg/mL (≈ 51.1 µM)
MIC [10]: 8 µg/mL (≈ 25.5 µM)
MIC [11]: 128 µg/mL (≈ 408 µM)
MIC [12]: 128 µg/mL (≈ 408 µM)
MIC (Proteus vulgaris CNUR 6): 128 µg/mL (≈ 408 µM)
MIC [13]: 128 µg/mL (≈ 408 µM)
MIC [14]: 128 µg/mL (≈ 408 µM)
MIC (Gram +; read-out: Log (converted)): 128 µg/mL (≈ 408 µM)
MIC (Gram -; [16]): 13.3 µg/mL (≈ 42.4 µM)
MIC (Gram -; [17]): 13.3 µg/mL (≈ 42.5 µM)
